Assay results taken from PubChem BioAssay (NCI).
“And” between values parts separate entries of the source, which are not always exact repeats. Identical values can stand only once.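 Step 1: Grow cells in 96-well plates. Step 2: Expose to compound for 48 hours at 5 concentrations. Step 3: Interpolate endpoints linearly; if unreached, use highest concentration. Here, GI50 denotes the concentration required for 50% inhibition of growth. At the TGI there is no net growth.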

Tests used:
Test in all cases: inhibition of tumour cell growth, NCI panel, 48 h
DMS 114 small cell lung = test system: DMS 114 small cell lung
DMS 273 small cell lung = test system: DMS 273 small cell lung
SNB-78 CNS = test system: SNB-78 CNS
HOP-18 NSCLC = test system: HOP-18 NSCLC
LXFL 529 NSCLC = test system: LXFL 529 NSCLC
PC-3 prostate = test system: PC-3 prostate
DU-145 prostate = test system: DU-145 prostate
MCF7 breast = test system: MCF7 breast
MDA-MB-231 breast = test system: MDA-MB-231 breast
HS 578T breast = test system: HS 578T breast

Compound: Cc1nc(-c2cccnc2)sc1C(=O)/C=C/c1ccc(Cl)cc1Cl
- TGI (DMS 114 small cell lung): > 100 µM
- TGI (DMS 273 small cell lung): > 100 µM
- TGI (SNB-78 CNS): > 100 µM
- TGI (HOP-18 NSCLC): > 100 µM

Compound: CC(=O)OCC1OC(OC(C)=O)C(NC#N)C(OC(C)=O)C1OC(C)=O (stereo unspecified)
- TGI (DMS 114 small cell lung): > 100 µM
- TGI (DMS 273 small cell lung): > 100 µM
- TGI (HOP-18 NSCLC): > 100 µM
- TGI (LXFL 529 NSCLC): > 100 µM

Compound: COc1cccc(OC)c1/C=N\N1C(=O)c2ccccc2C1=O
- TGI (DMS 114 small cell lung): 91 µM
- TGI (DMS 273 small cell lung): 84.6 µM
- TGI (SNB-78 CNS): > 100 µM
- TGI (HOP-18 NSCLC): > 100 µM
- TGI (LXFL 529 NSCLC): > 100 µM

Compound: COC(=O)C1=C(C)N(NC(=O)Nc2ccccc2)C2(N)N(NC(=O)Nc3ccccc3)C(C)=C(C(=O)OC)C12C(=O)OC (stereo unspecified)
- TGI (DMS 114 small cell lung): > 100 µM
- TGI (DMS 273 small cell lung): > 100 µM
- TGI (SNB-78 CNS): 84.6 µM
- TGI (HOP-18 NSCLC): > 100 µM
- TGI (LXFL 529 NSCLC): > 100 µM

Compound: CCCCCCCCCCCCCCCC(=O)NCC(OCC)OCC
- TGI (DMS 114 small cell lung): > 100 µM
- TGI (DMS 273 small cell lung): > 100 µM
- TGI (SNB-78 CNS): > 100 µM
- TGI (HOP-18 NSCLC): > 100 µM
- TGI (LXFL 529 NSCLC): > 100 µM

Compound: CCOC(=O)c1c(/C=N\Nc2ccccc2)nc2ccccc2c1-c1ccccc1
- TGI (DMS 114 small cell lung): 98.1 µM
- TGI (DMS 273 small cell lung): > 100 µM
- TGI (SNB-78 CNS): > 100 µM
- TGI (HOP-18 NSCLC): > 100 µM
- TGI (LXFL 529 NSCLC): > 100 µM

Compound: CCOC(=O)C1=C(O)c2c(OC)ccc(OC)c2C(=O)C1=O
- TGI (DMS 114 small cell lung): > 100 µM
- TGI (DMS 273 small cell lung): > 100 µM
- TGI (SNB-78 CNS): > 100 µM
- TGI (HOP-18 NSCLC): > 100 µM

Compound: CCCNc1ncnc2c1cnn2C
- TGI (DMS 114 small cell lung): > 100 µM
- TGI (DMS 273 small cell lung): > 100 µM
- TGI (SNB-78 CNS): > 100 µM
- TGI (HOP-18 NSCLC): > 100 µM

Compound: Cc1cc2c(=O)cc(-c3ccncc3)oc2c(C(=O)O)c1C
- TGI (DMS 273 small cell lung): > 100 µM
- TGI (SNB-78 CNS): > 100 µM
- TGI (HOP-18 NSCLC): > 100 µM
- TGI (LXFL 529 NSCLC): > 100 µM

Compound: NC1CC(n2ccc(=O)[nH]c2=O)OC1C(O)CO (stereo unspecified)
- TGI (DMS 114 small cell lung): > 100 µM
- TGI (DMS 273 small cell lung): > 100 µM
- TGI (HOP-18 NSCLC): > 100 µM
- TGI (LXFL 529 NSCLC): > 100 µM

Compound: O=C(Nc1ccccc1)Oc1ccccc1C1CCCCC1
- TGI (DMS 114 small cell lung): 32.8 µM
- TGI (DMS 273 small cell lung): 42.6 µM
- TGI (SNB-78 CNS): 54.9 µM
- TGI (HOP-18 NSCLC): 68.5 µM
- TGI (LXFL 529 NSCLC): > 100 µM

Compound: Cn1ncc2c(c1=O)Nc1ccccc1S2(=O)=O
- TGI (DMS 114 small cell lung): 40.9 µM
- TGI (DMS 273 small cell lung): > 100 µM
- TGI (SNB-78 CNS): > 100 µM
- TGI (HOP-18 NSCLC): > 100 µM
- TGI (LXFL 529 NSCLC): > 100 µM

Compound: CCOC(=O)/C(=C/c1ccc[nH]1)P(=O)(OCC)OCC
- TGI (DMS 114 small cell lung): > 100 µM
- TGI (DMS 273 small cell lung): > 100 µM
- TGI (SNB-78 CNS): > 100 µM
- TGI (HOP-18 NSCLC): > 100 µM
- TGI (LXFL 529 NSCLC): > 100 µM

Compound: CN1OC(CO)CC12C1CC3CC(C1)CC2C3 (stereo unspecified)
- TGI (DMS 114 small cell lung): > 100 µM
- TGI (DMS 273 small cell lung): > 100 µM
- TGI (HOP-18 NSCLC): > 100 µM
- TGI (LXFL 529 NSCLC): > 100 µM

Compound: NC(=O)NC(=O)C1CCC(=O)N1S(=O)(=O)c1ccc(Cl)cc1 (stereo unspecified)
- TGI (DMS 114 small cell lung): > 100 µM
- TGI (HOP-18 NSCLC): > 100 µM
- TGI (LXFL 529 NSCLC): > 100 µM

Compound: O=[N+]([O-])C1(CO)COC(CCc2ccccc2)OC1 (stereo unspecified)
- TGI (HOP-18 NSCLC): > 100 µM
- TGI (LXFL 529 NSCLC): > 100 µM

Compound: CC1=C2[C@@H](c3ccccc3)C3C=CC2(C=C3C(F)(F)F)N(C(=O)NC2CCCCC2)C1=O (stereo partly specified)
- TGI (DMS 114 small cell lung): > 100 µM
- TGI (DMS 273 small cell lung): > 100 µM
- TGI (SNB-78 CNS): > 100 µM
- TGI (HOP-18 NSCLC): > 100 µM
- TGI (LXFL 529 NSCLC): > 100 µM

Compound: NC1=NN(c2ccccc2)C(=O)C1/C(=N\NC(=O)c1cc2ccccc2cc1O)C(=O)Nc1ccc(Cl)cc1 (stereo unspecified)
- TGI (DMS 114 small cell lung): 56.7 µM
- TGI (DMS 273 small cell lung): > 100 µM
- TGI (SNB-78 CNS): > 100 µM
- TGI (HOP-18 NSCLC): > 100 µM
- TGI (LXFL 529 NSCLC): > 100 µM

Compound: O=[N+]([O-])c1cccc(C2=NOC3CCCC23)c1 (stereo unspecified)
- TGI (DMS 114 small cell lung): > 100 µM
- TGI (DMS 273 small cell lung): > 100 µM
- TGI (SNB-78 CNS): > 100 µM
- TGI (HOP-18 NSCLC): > 100 µM
- TGI (LXFL 529 NSCLC): > 100 µM

Compound: CCOC(=O)NC/C=C/CO
- TGI (DMS 114 small cell lung): > 100 µM
- TGI (DMS 273 small cell lung): > 100 µM
- TGI (SNB-78 CNS): > 100 µM
- TGI (HOP-18 NSCLC): > 100 µM
- TGI (LXFL 529 NSCLC): > 100 µM

Compound: Nc1nc(N)c(-c2ccccc2)c(C(=O)Nc2nccs2)n1
- TGI (DMS 114 small cell lung): > 100 µM
- TGI (SNB-78 CNS): > 100 µM
- TGI (HOP-18 NSCLC): > 100 µM
- TGI (LXFL 529 NSCLC): > 100 µM

Compound: O=C1NC2(CCCCC2)C2=C1CCCCC2
- TGI (DMS 114 small cell lung): > 100 µM
- TGI (DMS 273 small cell lung): > 100 µM
- TGI (SNB-78 CNS): > 100 µM
- TGI (HOP-18 NSCLC): > 100 µM
- TGI (LXFL 529 NSCLC): > 100 µM

Compound: CC1CC2C(=O)N(c3ccccc3)C(=O)C2c2[nH]c3ccccc3c21 (stereo unspecified)
- TGI (DMS 114 small cell lung): > 100 µM
- TGI (DMS 273 small cell lung): > 100 µM
- TGI (SNB-78 CNS): > 100 µM
- TGI (LXFL 529 NSCLC): > 100 µM

Compound: CCNC(=O)O/N=C1/C=C2CC[C@@H]3C(CC[C@@]4(C)C3CC[C@@H]4OC(=O)NCC)[C@@]2(C)CC1 (stereo partly specified)
- TGI (DMS 114 small cell lung): 3.29 µM
- TGI (DMS 273 small cell lung): 5.5 µM
- TGI (SNB-78 CNS): 9.3 µM
- TGI (LXFL 529 NSCLC): 3.4 µM

Compound: Cc1c2cc[n+](C)cc2c(C)c2c1[nH]c1ccc(Oc3ccccc3)cc12
- GI50 (DMS 273 small cell lung): 1.15 µM
- TGI (DMS 273 small cell lung): > 100 µM
- GI50 (SNB-78 CNS): 0.809 µM and 0.266 µM
- TGI (SNB-78 CNS): 3.47 µM
- GI50 (HOP-18 NSCLC): 2.37 µM and 5.56 µM
- TGI (HOP-18 NSCLC): 21.8 µM and 32.5 µM
- TGI (LXFL 529 NSCLC): 6.13 µM and 6.82 µM

Compound: O=C1COc2cc3c(cc2N1)SCC(=O)N3
- TGI (DMS 114 small cell lung): > 100 µM
- TGI (DMS 273 small cell lung): > 100 µM
- TGI (SNB-78 CNS): > 100 µM
- TGI (HOP-18 NSCLC): > 100 µM
- TGI (LXFL 529 NSCLC): > 100 µM

Compound: Cc1c(N)nc(C2CC(=O)N2CC(N)C(N)=O)nc1C(=O)NC(C(=O)NC(C)C(O)C(C)C(=O)NC(C(=O)NCCc1nc(-c2nc(C(=O)NCCNCC(C)O)cs2)cs1)C(C)O)C(OC1OC(CO)C(O)C(O)C1OC1OC(CO)C(O)C(OC(N)=O)C1O)c1cnc[nH]1 (stereo unspecified)
- TGI (PC-3 prostate): > 50 µM
- TGI (DU-145 prostate): 37.6 µM
- TGI (MCF7 breast): 50 µM
- TGI (DMS 114 small cell lung): 4.47 µM
- TGI (MDA-MB-231 breast): > 50 µM
- TGI (DMS 273 small cell lung): 12 µM
- TGI (HS 578T breast): 50 µM
- TGI (SNB-78 CNS): > 100 µM
- TGI (HOP-18 NSCLC): > 100 µM
- TGI (LXFL 529 NSCLC): > 100 µM

Compound: Cc1c(C(=O)C/C(=N/NC(=O)CC#N)C(N)=O)[n+](=O)c2ccccc2n1[O-]
- TGI (DMS 114 small cell lung): 57.8 µM
- TGI (DMS 273 small cell lung): > 100 µM
- TGI (SNB-78 CNS): > 100 µM
- TGI (HOP-18 NSCLC): > 100 µM
- TGI (LXFL 529 NSCLC): > 100 µM

Compound: Nc1ccc2ncc(Nc3ccc(Cl)c(Cl)c3)nc2c1
- TGI (DMS 114 small cell lung): 42.1 µM
- TGI (DMS 273 small cell lung): 49.5 µM
- TGI (SNB-78 CNS): 74.1 µM
- TGI (LXFL 529 NSCLC): > 100 µM
